Reference: US20230331707A1, “PROGRAMMED CELL NECROSIS INHIBITOR, PREPARATION METHOD THEREFOR, AND USE THEREOF” (Shanghai Institute of Organic Chemistry, Chinese Academy of …, priority 2020, published 2023)

What was measured:
[1] = system: phosphorylation of RIPK1 and phosphorylation of downstream protein MLKL; assay: Programmed necrosis pathway signals by western blot in L929 cells; type: cell-based, mouse
Protocol: In order to verify whether the compounds of the present invention can inhibit programmed cell necrosis by inhibiting the activity of RIPK1, and to detect the changes in the signal of the programmed necrosis pathway. FADD-deficient Jurkat or L929 cells treated with the compound of the present invention were used, and TNFα was added to induce programmed necrosis. Then the cells were collected and phosphorylation of RIPK1 and oligomerization of MLKL were detected using western blot.
Methods: FADD-deficient Jurkat cells or L929 cells were cultured in vitro. After growing to the logarithmic growth phase, the cells were collected, centrifuged at 1000 rpm for 5 min, the supernatant was discarded, and the cell concentration was adjusted to 1×10^6/mL. In the 12-well cell culture plate, each well was added with 1 ml of cells, and 0.2 μL of DMSO solution with a concentration of 50 mM drug or pure DMSO control, and pretreated for 1 h. 0.5 μL of TNF α (PBS solution) with a concentration of 100 μg/ml was added to each stimulated group. […] The BCA protein quantification kit was used to detect the protein content of each group, and PIPA lysis buffer was used to adjust the protein amount to make the final volume being 100 μL. […] The resulting sample was incubated with ECL luminescent solution and the luminescent signal was detected.

[2] = Pharmacokinetic properties in mice; type: in vivo
Protocol: The adopted biological test protocol was: drug metabolism test of the compound on the mouse in vivo.
In order to verify the […], a representative compound QY-10-40 was selected and the pharmacokinetic properties of the compound in mice (n=3) were tested using single administration by gavage (PO, 10 mg/kg) or intravenous injection (IV, 1 mg/kg).

SMILES: Cn1ncc(C(=O)NCc2ccc(-n3cnc4c(N)ncnc43)cc2)c1Cc1ccccc1 [QY-10-40]
- inhibitory effect on pathway signals compared with GSK2982772 and Nec-1s [1]: far superior to the other two
- bioavailability (F) (in words) ([2]; PO 10 mg/kg, IV 1 mg/kg): better bioavailability
- half-life (T1/2) (in words) ([2]; PO 10 mg/kg, IV 1 mg/kg): better
- blood concentrations for most of the time within 24 h ([2]; gavage 10 mg/kg, single dose, 10 nM = effective inhibitory concentration): > 10 nM
- time to peak (in words) ([2]; single dose (PO 10 mg/kg or IV 1 mg/kg)): rapidly reach the peak
